Reference: patent publication US20150057363A1, “TREATMENT OF METHYLMALONIC ACIDURIA, ISOVALERIC ACIDURIA, AND OTHER ORGANIC ACIDURIAS WITH TOCOTRIENOL QUINONES” (priority 2011, published 2015)
pEC50: −log10 of the molar value.

What was measured:
[1] = tested on: MMA fibroblasts; assay: MMA cell line assay: rescue of BSO-stressed fibroblasts (cell viability, Calcein AM); format: cell-based; details: Homo sapiens, Fibroblast; fibroblasts from MMA patient stressed with 25 μM BSO; Calcein AM readout; read-out: ED50 (protection of cell viability)
Description: Alpha-Tocotrienol quinone, its redox-silent version (the bis-Boc protected corresponding hydroquinone), and solvent controls were tested for their ability to rescue cells from MMA fibroblasts of the patient diagnosed with MMA, when the cells were stressed by addition of L-buthionine-(S,R)-sulfoximine (BSO), as described in Jauslin et al., Hum. Mol. Genet. 11(24):3055 (2002), Jauslin et al., FASEB J. 17:1972-4 (2003), and International Patent Application WO 2004/003565. EC50 concentrations of test compound and its redox-silent version were determined and compared. The following compound, 2-((6E,10E)-3-hydroxy-3,7,11,15-tetramethylhexadeca-6,10,14-trienyl)-3,5,6-trimethyl-bis(t-butyloxycarbonyl)benzene-1,4-diol, the bis-Boc protected hydroquinone form of alpha-tocotrienol quinone, was used as the “redox-silent” alpha tocotrienol quinone, or αTTQ-RS.
DMEM (Dulbecco's Modified Eagle Medium)—No Glucose, No pyruvate—GIBCO®—Catalog number 11966-025 from Invitrogen. Fetal Calf Serum was obtained from PAA Laboratories. Basic fibroblast growth factor and epidermal growth factor were purchased from PeproTech. Penicillin-streptomycin-glutamine mix, L-buthionine (S,R)-sulfoximine, and insulin from bovine pancreas were purchased from Sigma. Calcein AM was purchased from Molecular Probes. […]

[2] = Pharmacokinetics of alpha-tocotrienol quinone in rats; format: in vivo, rat
Description: (§1) The particular dosage appropriate for a specific patient is determined by dose titration. […] This lack of dose-proportionality may be due to decreased absorption since there is no change in t1/2 over dose range. Alpha-tocotrienol quinone tested in rats was safe when given acutely up to 2000 mg/kg.

[3] = Pharmacokinetics of alpha-tocotrienol quinone in fasted dogs; details: dog, in vivo, po, 10 mg/kg
Description: as §1

[4] = tested on: rats; details: rat, in vivo
Description: as §1
The starting dose can be estimated based on the United States Food and Drug Administration guidelines titled “Estimating the Maximum Safe Starting Dose in Initial Clinical Trials for Therapeutics in Adult Healthy Volunteers” (July 2005) as well as the International Conference on Harmonisation of Technical Requirements for Registration of Pharmaceuticals for Human Use (ICH) guidelines titled “Guidance on Non-clinical Safety Studies for the Conduct of Human Clinical Trials and Marketing Authorization for Pharmaceuticals” (July 2008). Per ICH guidelines, predicted exposures from the starting dose should not exceed 1/50th the NOAEL (No-Adverse-Observed-Effect-Level) in the more sensitive species on a mg/m^2 basis. Following a single oral dose of alpha-tocotrienol quinone, the NOAEL was established to be 500 mg/kg for the female rat, i.e. 3,000 mg/m2. This dosage would be equivalent to 81 mg/kg in an adult human. 1/50th of 81 mg/kg is 1.6 mg/kg, i.e. 110 mg for a 70 kg adult, or 16 mg for a 10 kg child. This dose can be administered once, twice, or three times daily.

[5] = Blood-brain barrier crossing in mice; format: in vivo

CC(C)=CCC/C(C)=C/CC/C(C)=C/CCC(C)(O)CCC1=C(C)C(=O)C(C)=C(C)C1=O (stereo not drawn) [alpha-tocotrienol quinone, Alpha-tocotrienol quinone]
pEC50 [1]: 7.64
dose-proportionality of AUC ([2]; increase in doses of 2.4: 6: 10: 20 gives increase in AUCs of 1.5: 2.8: 4.0: 6.7): less than dose-proportionality
bioavailability ([2]; rat, in vivo, 10 mg/kg): ~90%
bioavailability [3]: ~16%
safe when given acutely up to [4]: up to 2000 mg/kg
NOAEL on mg/m2 basis ([4]; po): 3,000 mg/m2
crosses the blood-brain barrier [5]: crosses the blood-brain barrier
